Test results taken from US20250345370A1, “MICROBIAL LIBERATION OF N-METHYLSEROTONIN FROM ORANGE FIBER” (Washington University, priority 2022, published 2025).
Where two headings read alike, the source gives them in different places.

Columns and labels:
[1] = for 2-methylserotonin remaining: 200 ng spike-in
rat hepatocytes = conditions: cited from earlier work
[2] = Human studies with pea and orange fiber snack prototypes: fecal N-methylserotonin and serotonin levels; format: in vivo; conditions: in vivo
Procedure: Human studies with pea and orange fiber snack prototypes. Two separate open-label, single group assignment studies were performed involving members of the Missouri Adolescent Female Twin Study (MOAFTS) cohort who were age 31-45 years at the time of enrollment. The first study with the pea fiber snack was performed between April and August 2017, while the second study with the orange fiber snack was conducted between August and December 2017. All participants provided written informed consent and the studies were approved by the Washington University Institutional Review Board (IRB ID #201611122). (ClinicalTrials.gov NCT03078283).
The design of the two studies were identical except for the fiber snack supplement used and the number of participants in each study. Individuals who were pregnant or trying to get pregnant, had inflammatory bowel disease, gastrointestinal cancer, hepatitis, HIV, renal failure, or allergies to dairy, eggs, fish, crustacean shellfish, tree nuts, sesame seeds, peanuts, wheat, gluten, soybeans, celery, or mustard were excluded from the study. In Study 1, four twin pairs were concordant for obesity (BMI>30 kg/m2) while five pairs were discordant with one member being obese and the other non-obese (n=18 participants, […] (mean±SD); Table S8B). Study 2 involved 24 participants: 12 dizygotic twin pairs [37±2.9 years (mean±SD)], nine of whom had participated in the pea fiber study; for these nine pairs, the interval between cessation of pea fiber snack consumption and initiation of orange fiber consumption ranged from 50 to 106 days [84+26 days (mean±SD)]. Participants consumed their normal, unrestricted diet for the first two weeks of the study (pre-intervention phase). At the beginning of week three, they supplemented their diets with one 35 g fiber snack serving a day for one week, then two 35 g snack servings a day the following week, and thereafter, three 35 g snacks per day for four weeks (weeks 5-8) at breakfast, lunch and dinner. No attempt was made to adjust the diets of participants other than supplementation with the fiber snack. Snack prototypes were manufactured by Mondeldz International, Inc. (see Table S8A for their composition), which participants received in weekly shipments from the study center. The pea fiber snacks were in the form of rotary biscuits (6.7 g total fiber/35 g snack) or extruded bars (8.1 g fiber/35 g snack) with participants having the option to alternate between them. The orange fiber snacks were all in the form of extruded bars (10.2 g total fiber/35 g snack). Compliance was monitored throughout by the study coordinator through weekly phone calls. The primary outcomes for each study were the effects of the respective prototypes on gut microbial community structure and function.
Fecal samples were collected by participants in small medically approved collection containers. Each fecal sample was frozen immediately at −20° C. and temporarily stored in dedicated freezers provided to participants at the beginning of the study. Within 12-48 hours after collection, all samples were shipped, via overnight delivery, in an insulated container containing frozen gel packs, to a biospecimen repository located in Washington University in St. Louis and overseen by one of the authors (A.C.H.). Once received, samples were stored at −80° C. until processing for LC-QqQ-MS analysis of N-methylserotonin levels and culture-independent characterization of ASV and CAZyme gene abundances.
Measurement of fecal N-methylserotonin levels—Each fecal sample was homogenized with a porcelain mortar (4 L) and pestle while submerged in liquid nitrogen; multiple 500 mg aliquots of the pulverized frozen material were stored at −80° C. N-methylserotonin was quantified using the same protocol that was employed for mouse fecal samples (as described herein elsewhere).
N-methylserotonin levels and microbiome CAZyme gene abundances in humans consuming fiber snack prototypes. […]

[3] = In vitro screening of bacterial strains for N-methylserotonin releasing activity from orange fiber; format: cell-based, human gut bacterial strains; conditions: for N-methylserotonin released, MEGA Medium 2.0 72 hrs / N-methylserotonin released, TYG medium 8 hrs / N-methylserotonin released, TYG medium 24 hrs / N-methylserotonin released, TYG medium 48 hrs / N-methylserotonin released, TYG medium 72 hrs / N-methylserotonin released, Wilkins-Chalgren 72 hrs: 5 mg/ml orange fiber, normalized to 10^6 microbes, n=3
Procedure: In vitro screening of bacterial strains for N-methylserotonin releasing activity. A given bacterial strain was grown in monoculture at 37° C. in TYG medium in an anaerobic chamber (atmosphere; 75% N2, 20% CO2 and 5% H2) to stationary phase. An aliquot was then added to 10 mL of fresh TYG medium with or without 50 mg of orange fiber that had been sterilized by gamma irradiation (30-50 KGy); the mixture was incubated under anaerobic conditions without shaking for 72 hours. A 200 μL aliquot was then removed for targeted LC-QqQ-MS measurement of N-methylserotonin levels; another aliquot was used to define the number of colony-forming units so that levels of the analyte were expressed per 10^6 cells. An identical protocol was used to compare the amount of N-methylserotonin released when two other rich media, MEGA medium 2.0 and Wilkins-Chalgren anaerobe broth (Thermo-Fisher), were used in lieu of TYG. All incubations were performed in triplicate for each condition. […]
Bacterial strains capable of mining of N-methylserotonin from orange fiber in vitro. Given that detection of N-methylserotonin was dependent on colonization with the bacterial consortium and consumption of orange fiber, it was next investigated which community members were responsible for its appearance. Each of the 14 community members was grown in monoculture to stationary phase in TYG medium; 10^5 cells of each organism were incubated in 10 mL of a 5 mg/mL suspension of orange fiber for 8, 24, 48, 72 and 168 hours. N-methylserotonin was quantified using targeted LC-QqQ-MS. […] At this time point, Bacteroides ovatus strain TSDC 17.2 and a strain of Parabacteroides distasonis yielded similar quantities of product (29±1 and 24±2 ng N-methylserotonin/10^6 cells, respectively). In contrast, the 12 other strains yielded<1.5 ng/10^6 cells—an amount that was not appreciably higher than background levels (triplicate incubations/organism; FIG. 1C). […]

[4] = Release of N-methylserotonin from orange fiber by commercially available glycoside hydrolase preparations; format: biochemical
Procedure: Enzymatic screening of citrus & plant samples. All enzymatic assays are carried out using a total volume of 10 ml in water, 50 mg of plant fiber material tested and 700 active units of the same cellulase enzyme mixture (Sigma) as described herein. Samples were processed based on their condition, divided as follows. Citrus fibers sourced from various citrus types, described in Table S9 as “Ground,” are added directly to the enzymatic assay, while citrus fibers described as either “Granule” or “Whole” are first manually pulverized into a fine powder via mortar and pestle. The commercially available fiber source is classified as “Ground” if it was already processed into fine powder, or otherwise small enough granules in which individual pieces cannot be manually picked up via forceps. The commercially available fiber source is classified as “Granule” or “Whole” if individual fragments or pieces of the fiber is readily discernable, where “Granule” are applied to visibly uniform samples and “Whole” applied to all other samples. […]
Identifying genes involved in release of N-methylserotonin from orange fiber. […] When orange fiber (50 mg) was subjected to repeated rounds of extraction with methanol, small quantities of N-methylserotonin were released after each round (31 ng after two rounds; 171 ng in total after 15 rounds; Table S4F). […]

[5] = Control experiments of bacterial N-methylserotonin release (heat-killed cells, conditioned media, lysates); format: cell-based, human gut bacterial strains
Procedure: Experiments seeking to test the necessity of having live bacteria to extract N-methylserotonin were carried out by first incubating monocultures of B. ovatus, B. finegoldii, […] conditions to stationary phase. The stationary phase culture was then treated at 70° C. for 1 hour. […]
Experiments using conditioned media were carried out by taking monocultures of B. ovatus, B. finegoldii, P. distasonis, […], centrifuging the culture for […]
Experiments using bacterial lysates were carried out by bead-beating of bacterial cells, collected by centrifugation from 10 mL stationary phase TYG cultures for 4 minutes at room temperature; 500 μL of the […] To ensure sterility in these experiments, aliquots of the heat-treated cells, centrifuged conditioned media, or bacterial lysate were cultured in TYG medium for 7 days and subsequently plated on TYG-agar; the results confirmed the absence of colony forming units. Assays were performed in triplicate for each experimental condition.
These experiments indicate that mining requires intact viable cells.

Cc1[nH]c2ccc(O)cc2c1CCN [2-methylserotonin, reference compound]
2-methylserotonin remaining ([1]; Extraction 1): 190 ng | 2-methylserotonin remaining ([1]; Extraction 2): 10 ng | 2-methylserotonin remaining ([1]; Extraction 3): 0 ng | 2-methylserotonin remaining ([1]; Extraction 4): 0 ng | 2-methylserotonin remaining ([1]; Extraction 5): 0 ng | 2-methylserotonin remaining ([1]; Extraction 6): 0 ng | 2-methylserotonin remaining ([1]; Extraction 7): 0 ng | 2-methylserotonin remaining ([1]; Extraction 8): 0 ng | 2-methylserotonin remaining ([1]; Extraction 9): 0 ng | 2-methylserotonin remaining ([1]; Extraction 10): 0 ng | 2-methylserotonin remaining ([1]; Extraction 11): 0 ng | 2-methylserotonin remaining ([1]; Extraction 12): 0 ng | 2-methylserotonin remaining ([1]; Extraction 13): 0 ng | 2-methylserotonin remaining ([1]; Extraction 14): 0 ng | 2-methylserotonin remaining ([1]; Extraction 15): 0 ng | 2-methylserotonin removed by the first cycle of extraction ([1]; methanol, spike-in added to orange fiber): 95%

CC(N)Cc1c[nH]c2ccc(O)cc12 (stereo not drawn) [alpha-methylserotonin]
glycogen synthesis (rat hepatocytes): able to increase glycogen synthesis

NCCc1c[nH]c2ccc(O)cc12 [serotonin]
fecal serotonin levels ([2]; female, human): 7 ± 5.7 µM | fecal serotonin levels as % of that of N-methylserotonin [2]: 0-8.6% | glycogen synthesis (rat hepatocytes): decreases glycogen synthesis

Bacteroides cellulosilyticus
N-methylserotonin released, MEGA Medium 2.0 72 hrs [3]: 1.0 ± 0.2 ng | N-methylserotonin released, TYG medium 8 hrs [3]: 0.3 ± 0.1 ng | N-methylserotonin released, TYG medium 24 hrs [3]: 0.3 ± 0.1 ng | N-methylserotonin released, TYG medium 48 hrs [3]: 0.6 ± 0.1 ng | N-methylserotonin released, TYG medium 72 hrs [3]: 0.9 ± 0.2 ng | N-methylserotonin released, Wilkins-Chalgren 72 hrs [3]: 1 ± 0.2 ng

Cellulase
N-methylserotonin levels at 72 h ([4]; 50 mg orange fiber incubated with enzyme): 2727.9 ± 25.5 ng | total yield of N-methylserotonin ([4]; orange fiber incubated with enzyme preparation): 2728±26 ng/50 mg orange fiber

Parabacteroides distasonis
N-methylserotonin levels, Cellular extract ([5]; Mega 2.0 (+orange fiber)): 0.3 ± 0.1 ng | N-methylserotonin levels, Conditioned media ([5]; Mega 2.0 (+orange fiber)): 0.3 ± 0.1 ng | N-methylserotonin levels, Heat inactivated ([5]; Mega 2.0 (+orange fiber)): 0.4 ± 0.1 ng | N-methylserotonin levels, Cellular extract ([5]; Mega 2.0, no orange fiber): ND (ND (not detected)=N-methylserotonin levels below 0.02 ng) | N-methylserotonin levels, Conditioned media ([5]; Mega 2.0, no orange fiber): ND (ND (not detected)=N-methylserotonin levels below 0.02 ng) | N-methylserotonin levels, Heat inactivated ([5]; Mega 2.0, no orange fiber): ND (ND (not detected)=N-methylserotonin levels below 0.02 ng) | N-methylserotonin levels, Cellular extract ([5]; TYG (+orange fiber)): 0.2 ± 0.1 ng | N-methylserotonin levels, Conditioned media ([5]; TYG (+orange fiber)): 0.3 ± 0.1 ng | N-methylserotonin levels, Heat inactivated ([5]; TYG (+orange fiber)): 0.3 ± 0.1 ng | N-methylserotonin levels, Cellular extract ([5]; TYG, no orange fiber): ND (ND (not detected)=N-methylserotonin levels below 0.02 ng) | N-methylserotonin levels, Conditioned media ([5]; TYG, no orange fiber): ND (ND (not detected)=N-methylserotonin levels below 0.02 ng) | N-methylserotonin levels, Heat inactivated ([5]; TYG, no orange fiber): ND (ND (not detected)=N-methylserotonin levels below 0.02 ng) | N-methylserotonin levels with heat-killed cells, lysates or conditioned medium ([5]; fresh TYG with orange fiber, 72 hours): failed to yield levels of N-methylserotonin above background | N-methylserotonin released, MEGA Medium 2.0 72 hrs [3]: 24.8 ± 2.1 ng | N-methylserotonin released, TYG medium 8 hrs [3]: 0.3 ± 0.1 ng | N-methylserotonin released, TYG medium 24 hrs [3]: 1.0 ± 0.1 ng | N-methylserotonin released, TYG medium 48 hrs [3]: 7.5 ± 0.7 ng | N-methylserotonin released, TYG medium 72 hrs [3]: 24.3 ± 2.4 ng | N-methylserotonin released, Wilkins-Chalgren 72 hrs [3]: 22.1 ± 0.7 ng | N-methylserotonin yielded at the 72-hour time point ([3]; TYG, 5 mg/mL orange fiber, triplicate): 24±2 ng N-methylserotonin/10^6 cells
